Consider 2 molecules from US20180312473A1, “PHENAZINE DERIVATIVES AS ANTIMICROBIAL AGENTS” (priority 2015, published 2018).

Assay [1] deals with Staphylococcus epidermidis (ATCC 35984), MRSE. Nature of the assay: MIC assay (broth microdilution, CLSI). Type of assay: cell-based. The conditions noted are these: Staphylococcus epidermidis.
In assay [2] the test system is M. tuberculosis H37Ra (ATCC 25177). Nature of the assay: Mycobacterium tuberculosis MIC assay. Format: cell-based. Summed up: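 Culture diluted to OD600 0.01 and exposed to compounds in 0.5% final DMSO, each compound tested in three rows. Growth read as OD600 absorbance. Data from three independent experiments.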
The subject of assay [3] is MRSA-2 planktonic cells and biofilms. Description: Calgary Biofilm Device (CBD) assay, MBC/MBEC. Type of assay: cell-based, Staphylococcus aureus. The conditions noted are these: for MBC: Staphylococcus aureus, MRSA.
The test system of a further assay is P. aeruginosa (PAO1). Description: MIC assay (broth microdilution, CLSI). Type of assay: cell-based. The conditions noted are these: Pseudomonas aeruginosa, PAO1; read-out: PAO1 MIC. (Dilution methods test growth across graded concentrations, often in twofold steps.)
For the next assay, the system named is K. pneumoniae 13883. Nature of the assay: MIC assay (broth microdilution, CLSI). Format: cell-based, Klebsiella pneumoniae. The conditions noted are these: Klebsiella pneumoniae, 13883; read-out: K. pneumoniae 13883 MIC.
A further assay concerns E. coli UAEC-1. Description: MIC assay (broth microdilution, CLSI). Format: cell-based. The conditions noted are these: Escherichia coli, UAEC1; read-out: E. coli UAEC-1 MIC.
Another assay concerns E. faecium 700221 (VRE). Description: MIC assay with Tiron or metal(II) cation co-treatment. Type of assay: cell-based, Enterococcus faecium.
The next assay relates to MRSA BAA-1707. Description: MIC assay (broth microdilution, CLSI). The conditions noted are these: Staphylococcus aureus, read-out: MIC, MRSA BAA-1707.
Assay [4] concerns MRSA BAA-1707 planktonic cells and biofilms. Nature of the assay: Calgary Biofilm Device (CBD) assay, MBC/MBEC. The conditions noted are these: Staphylococcus aureus, read-out: MRSA BAA-1707 MBC.
The subject of assay [5] is MRSA BAA-44 planktonic cells and biofilms. Description: Calgary Biofilm Device (CBD) assay, MBC/MBEC. The conditions noted are these: Staphylococcus aureus, read-out: MRSA BAA-44 MBC.
Assay [6] has as its system Staphylococcus epidermidis (ATCC 12228). Description: MIC assay (broth microdilution, CLSI). Format: cell-based. The conditions noted are these: Staphylococcus epidermidis, ATCC12228; Table 7; b lowest concentration tested; read-out: MIC, S. epidermidis 12228.
A further assay relates to MRSE 35984 biofilms. Nature of the assay: Live/Dead staining (fluorescence microscopy) of MRSE 35984 biofilms. Format: cell-based, Staphylococcus epidermidis. The conditions noted are these: 24 h. The method, then: In addition to Calgary Biofilm Device experiments, we evaluated select HPs against staphylococcal biofilms in live/dead staining experiments. HP 14 was added to 24 hour old MRSE biofilms at 0.1, 1, and 10 μM and allowed to incubate at 37° C. for an additional 24 hours. Following this, images of the treated and untreated S. epidermidis biofilm were taken using fluorescence microscopy (FIG. 11).
A mid-log culture of MRSE […] was diluted 1:1,000-fold and 500 μL was transferred to each compartment of a 4 compartment CELLview dish (Greiner Bio-One 627871). The dish was then incubated for 24 hours at 37° C. After this time, the cultures were removed and the plate was washed with 0.9% saline. The dish was then treated with the compounds in fresh media at various concentrations. DMSO was used as our negative control in this assay. The dish was incubated with the compound for 24 hours at 37° C. After this time, the cultures were removed and the dish was washed with 0.9% saline for 2 minutes. Saline was then removed and 500 μL of the stain (Live/Dead BacLight Viability Kit, Invitrogen) were added for 15 minutes and left in the dark. After this time, the stain was removed and the dish was washed twice with 0.9% saline. Then the dish was fixed with 500 μL 4% paraformaldehyde in PBS for 30 minutes. Images of remaining MRSE biofilms were then taken with a fluorescence microscope. All data were analyzed using IMAGE J software.

Assay [7] deals with MRSA-2 persister cells (stationary cultures). The conditions noted are these: 12.5 μM; reduction of viable cells over 24 h; listed as 214.
A further assay deals with MRSA BAA-44. Nature of the assay: MIC assay (broth microdilution, CLSI). The conditions noted are these: Staphylococcus aureus, read-out: MIC, MRSA BAA-44.
For assay [8], the system named is MRSA-2 persister cells (stationary cultures). Description: microbe, parasite or virus in culture. The conditions noted are these: Staphylococcus aureus, 24 h, read-out: reduction of viable stationary MRSA-2 cells.
The subject of assay [9] is S. aureus clinical isolate SA 129. Nature of the assay: MIC assay (broth microdilution, CLSI). The conditions noted are these: Staphylococcus aureus, read-out: MIC, SA 129.
Assay [10] relates to S. aureus clinical isolate SA 147. Nature of the assay: MIC assay (broth microdilution, CLSI). The conditions noted are these: Staphylococcus aureus, read-out: MIC, SA 147.
Assay [11] relates to S. aureus clinical isolate SA 156. Nature of the assay: MIC assay (broth microdilution, CLSI). The conditions noted are these: Staphylococcus aureus, read-out: MIC, SA 156.
The test system of assay [12] is MRSA biofilms (MRSA-2, BAA-1707, BAA-44). Description: Calgary Biofilm Device assay, values summarised over MRSA strains.
[13] abbreviates: Table 2B, read-out: MIC, Staphylococcus epidermidis (ATCC 35984).
[14] abbreviates: Table 7, read-out: MIC, MRSE 35984.
Where [15] appears, read: Mycobacterium tuberculosis, Table 7, read-out: MIC, M. tuberculosis H37Ra.
Setting [16] is: Table 5, a/b midpoint of 2-/4-fold range, read-out: MRSA-2 MBC.
Where [17] appears, read: Table 8, a/b 2-/4-fold range in independent experiments, read-out: MRSA-2 MBC.
Setting [18] is: viable biofilm cell count from CBD peg.

SMILES strings stand for the structures. ≈ marks a conversion by molar mass, not a printed value. Where “and” joins values, the source holds several entries; their conditions need not be identical. Equal entries are not always repeated. Where two headings read alike, the source gives them in different places.

Regarding `Oc1ccc(I)c2nc3cc(Cl)c(Cl)cc3nc12` [Compound 12, 7,8-Dichloro-4-iodo-1-hydroxyphenazine], the MIC (usually the smallest concentration in the dilution series that meets the test's criterion for growth inhibition) in assay [1] (Table 2A, read-out: MIC, Staphylococcus epidermidis (ATCC 35984)) is 0.78 µM (≈ 0.305 µg/mL); in assay [1] (setting [13]), 0.78 µM (≈ 0.305 µg/mL); in assay [1] (setting [14]), 0.78 µM (≈ 0.305 µg/mL); in assay [2] (Mycobacterium tuberculosis, 168 h, read-out: Mtb MIC), 3.13 µM; in assay [2] (setting [15]) it was 3.13 µM; in assay [2] (Mycobacterium tuberculosis, read-out: MIC, M. tuberculosis), about 1 µg/mL. Further, the MIC is over 100 µM with P. aeruginosa (PAO1); over 100 µM in the assay on K. pneumoniae 13883; over 100 µM in the assay on E. coli UAEC-1; 3.13 µM in the assay with E. faecium 700221 (VRE); 3.13 µM with E. faecium 700221 (VRE) (Enterococcus faecium, VRE); 3.13 µM in the assay on E. faecium 700221 (VRE) (Enterococcus faecium, VRE, read-out: MIC with Tiron). Further, the MIC in the assay on E. faecium 700221 (VRE) (Enterococcus faecium, VRE, E. faecium 700221, 200 μM CuSO4, read-out: MIC with Cu^2+) stood at 1.56 µM; with E. faecium 700221 (VRE) (read-out: MIC with Tiron), 3.13 µM; in the assay with MRSA BAA-1707, 0.15 µM (≈ 0.0586 µg/mL). The MBC in [3] (Table 4, read-out: MBC, MRSA-2) is 25 µM (≈ 9.77 µg/mL); in assay [3] (setting [16]) it was 25 µM (≈ 9.77 µg/mL); in assay [3] (setting [17]), 25 µM (≈ 9.77 µg/mL); in assay [4], 75 µM (≈ 29.3 µg/mL); in assay [5] it was 75 µM (≈ 29.3 µg/mL).

As to `Oc1c(Br)cc(I)c2nc3cc(Cl)c(Cl)cc3nc12` [Compound 14, 2-bromo-7,8-dichloro-4-iodo-1-hydroxyphenazine], the MIC in assay [6] worked out at 0.1 µM (≈ 0.047 µg/mL); in assay [1] (setting [13]), 3.13 µM (≈ 1.47 µg/mL); in assay [1] (setting [14]), 3.13 µM (≈ 1.47 µg/mL); in assay [2] (Mycobacterium tuberculosis, 168 h, M. tuberculosis H37Ra, 7 days, read-out: Mtb MIC) it was 12.5 µM; in assay [2] (setting [15]) it was 12.5 µM; in assay [2] (Table 7, read-out: MIC, M. tuberculosis H37Ra), 12.5 µM. The MIC with MRSA BAA-1707 was determined as 0.3 µM (≈ 0.141 µg/mL); in the assay on MRSA BAA-44, 3.13 µM (≈ 1.47 µg/mL); in assay [9], 1.56 µM (≈ 0.733 µg/mL); in assay [10], 0.3 µM (≈ 0.141 µg/mL); in assay [11], 0.3 µM (≈ 0.141 µg/mL). Moreover, the MBC was determined as 3.13 µM (≈ 1.47 µg/mL) in [3] (setting [16]), 3.13 µM (≈ 1.47 µg/mL) in [3] (setting [17]) and 12.5 µM (≈ 5.87 µg/mL) in [5]. Moreover, the “persister cells eradicated within MRSA biofilms at the MBEC” value in assay [3] (setting [18]) is over 99.9%. In addition, the “persister cells eradicated within MRSA-2 biofilms at the MBEC” value in [3] (setting [18]) is over 3 log. Further, the “effect on established MRSE biofilm (Live/Dead staining)” value with MRSE 35984 biofilms (0.1 μM) is “a significant amount of MRSE biofilm cells were eradicated, however, not cleared from within the biofilm”; in the assay on MRSE 35984 biofilms (1 μM) it was “a significant amount of the biofilm cells”; in the assay with MRSE 35984 biofilms (10 μM) it was “removed all detectable MRSE biofilm cells from the glass surface”. Further, the MRSA-2 stationary killing in assay [7] is reported as over 3 log. For the same molecule, the inhibition at 12.5 µM in [8] is over 99.9%. In addition, in [12], the “MBEC against MRSA biofilms” value was < 10 µM and 6.25 to 9.38 µM.
